Legend:
RAW264.7 = assay: Tested for the inhibition of NO production in RAW 264.7 cells; format: functional, Mus musculus
[1] = Tested for the inhibition of nitric oxide syntheses in murine macrophage cell line RAW 264.7; format: cell-based
L929 = assay: Relative cytotoxicity measured as inhibition of LPS induced TNF alpha production in L929 cells at 10 uM; format: functional, Mus musculus; parameters: scale not given: the % may be the effect or the level left
RAW = assay: Tested for the inhibition of nitric oxide syntheses in murine macrophage cell line RAW 264.7 at a concentration of 30 uM; format: cell-based

SMILES	Inhibition (RAW264.7)	IC50 [1]	Activity (L929)	inhibition (RAW)
N=C(N)NN [PIMAGEDINE]	79%	–	–	–
COc1cc(OC)c([C@@H]2[C@H](C)[C@@H](C)[C@H]2c2cc(OC)c(OC)cc2OC)cc1OC [MAGNOSALIN]	–	53.5 µM	84%	–
COc1cc(OC)c([C@@H]2[C@@H](C)[C@H](C)[C@H]2c2cc(OC)c(OC)cc2OC)cc1OC	–	5.9 µM	26%	17%
